Measurements from ChEMBL document CHEMBL1201862, “PubChem BioAssay data set” (2004).
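Step 1: Grow cells in 96-well plates. Step 2: Expose to compound for 48 hours at 5 concentrations. Step 3: Interpolate endpoints linearly; if unreached, use highest concentration. At the GI50, growth is halved.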 Activity calls are given as the source filed them. No stated cut-off is given here; in the data, active = GI50 up to about 1.1 µM and inactive = higher.

Legend:
Test in all cases: DTP human tumour cell line panel, 48 h
HT-29 = system: HT-29
MDA-N = system: MDA-N
OVCAR-3 = system: OVCAR-3
HCT-116 = system: HCT-116
SF-295 = system: SF-295
PC-3 = system: PC-3
NCI-H23 = system: NCI-H23
SF-539 = system: SF-539
SNB-19 = system: SNB-19
NCI/ADR-RES = system: NCI/ADR-RES
LOX IMVI = system: LOX IMVI
OVCAR-8 = system: OVCAR-8
HOP-62 = system: HOP-62
MCF7 = system: MCF7
OVCAR-4 = system: OVCAR-4
K562 = system: K562
Hs-578T = system: Hs-578T
SK-MEL-28 = system: SK-MEL-28
TK-10 = system: TK-10
Malme-3M = system: Malme-3M
SK-MEL-5 = system: SK-MEL-5
DU-145 = system: DU-145
MOLT-4 = system: MOLT-4
NCI-H226 = system: NCI-H226
A498 = system: A498
SF-268 = system: SF-268
HCC 2998 = system: HCC 2998
M14 = system: M14
KM12 = system: KM12
CCRF-CEM = system: CCRF-CEM
IGROV-1 = system: IGROV-1
SW-620 = system: SW-620
SR = system: SR
RXF 393 = system: RXF 393
T47D = system: T47D
ACHN = system: ACHN
HCT-15 = system: HCT-15
HL-60 = system: HL-60
MDA-MB-435 = system: MDA-MB-435
SK-MEL-2 = system: SK-MEL-2
SN12C = system: SN12C
UACC-257 = system: UACC-257
SK-OV-3 = system: SK-OV-3
NCI-H522 = system: NCI-H522
MDA-MB-231 = system: MDA-MB-231
UO-31 = system: UO-31
COLO 205 = system: COLO 205
HOP-92 = system: HOP-92
786-0 = system: 786-0
SNB-75 = system: SNB-75
U-251 = system: U-251
EKVX = system: EKVX
NCI-H460 = system: NCI-H460
RPMI-8226 = system: RPMI-8226
CAKI-1 = system: CAKI-1
OVCAR-5 = system: OVCAR-5
A549 = system: A549
UACC-62 = system: UACC-62

SMILES: O=C(O)CC1C(=O)OC2C3COC(=O)c4cc(O)c(O)c(O)c4-c4c(cc(O)c(O)c4O)C(=O)OC2C(OC(=O)c2cc(O)c(O)c4c2C1C(O)C(=O)O4)C(OC(=O)c1cc(O)c(O)c(O)c1)O3 (stereo not drawn)
- GI50 (HT-29): 13.6 µM (inactive)
- GI50 (MDA-N): 24.1 µM (inactive)
- GI50 (OVCAR-3): 18 µM (inactive)
- GI50 (HCT-116): 14.6 µM (inactive)
- GI50 (SF-295): 27.8 µM (inactive)
- GI50 (PC-3): 33.8 µM (inactive)
- GI50 (NCI-H23): 49.3 µM (inactive)
- GI50 (SF-539): 52.5 µM (inactive)
- GI50 (SNB-19): > 100 µM (inactive)
- GI50 (NCI/ADR-RES): 16.7 µM (inactive)
- GI50 (LOX IMVI): 14 µM (inactive)
- GI50 (OVCAR-8): 20.5 µM (inactive)
- GI50 (HOP-62): > 100 µM (inactive)
- GI50 (MCF7): 16.9 µM (inactive)
- GI50 (OVCAR-4): 37.9 µM (inactive)
- GI50 (K562): 36.4 µM (inactive)
- GI50 (Hs-578T): 56.5 µM (inactive)
- GI50 (SK-MEL-28): 95.5 µM (inactive)
- GI50 (TK-10): > 100 µM (inactive)
- GI50 (Malme-3M): > 100 µM (inactive)
- GI50 (SK-MEL-5): > 100 µM (inactive)
- GI50 (DU-145): 36.4 µM (inactive)
- GI50 (MOLT-4): 27.3 µM (inactive)
- GI50 (NCI-H226): 30.4 µM (inactive)
- GI50 (A498): > 100 µM (inactive)
- GI50 (SF-268): 36.6 µM (inactive)
- GI50 (HCC 2998): > 100 µM (inactive)
- GI50 (M14): 27.7 µM (inactive)
- GI50 (KM12): 17 µM (inactive)
- GI50 (CCRF-CEM): 13.7 µM (inactive)
- GI50 (IGROV-1): 30.2 µM (inactive)
- GI50 (SW-620): 28.8 µM (inactive)
- GI50 (SR): 33.7 µM (inactive)
- GI50 (RXF 393): 4.39 µM (inactive)
- GI50 (T47D): 59.8 µM (inactive)
- GI50 (ACHN): 30.4 µM (inactive)
- GI50 (HCT-15): 17.5 µM
- GI50 (HL-60): 7.43 µM (inactive)
- GI50 (MDA-MB-435): 26.4 µM (inactive)
- GI50 (SK-MEL-2): > 100 µM (inactive)
- GI50 (SN12C): 17.5 µM (inactive)
- GI50 (UACC-257): 34.1 µM (inactive)
- GI50 (SK-OV-3): 18.5 µM (inactive)
- GI50 (NCI-H522): 15.9 µM (inactive)
- GI50 (MDA-MB-231): 26.2 µM (inactive)
- GI50 (UO-31): 27.2 µM (inactive)
- GI50 (COLO 205): 35.1 µM (inactive)
- GI50 (HOP-92): 16.7 µM (inactive)
- GI50 (786-0): 18.5 µM (inactive)
- GI50 (SNB-75): 3.35 µM (inactive)
- GI50 (U-251): 23.9 µM (inactive)
- GI50 (EKVX): 18 µM (inactive)
- GI50 (NCI-H460): 16 µM (inactive)
- GI50 (RPMI-8226): 36.9 µM (inactive)
- GI50 (CAKI-1): 17.3 µM (inactive)
- GI50 (OVCAR-5): 13.5 µM (inactive)
- GI50 (A549): 21.6 µM (inactive)

SMILES: COc1ccc2c(c[n+](C)c3c4cc5c(cc4ccc23)OCO5)c1OC
- GI50 (MDA-N): 16.7 µM (inactive)
- GI50 (PC-3): 41.7 µM (inactive)
- GI50 (NCI/ADR-RES): 34.8 µM (inactive)
- GI50 (MCF7): 9.55 µM (inactive)
- GI50 (Hs-578T): 80.4 µM (inactive)
- GI50 (DU-145): > 100 µM (inactive)
- GI50 (RXF 393): > 100 µM (inactive)
- GI50 (T47D): > 100 µM (inactive)
- GI50 (MDA-MB-435): 19.3 µM (inactive)
- GI50 (MDA-MB-231): > 100 µM (inactive)

SMILES: CCOC(=O)CC(=O)N(c1ccc(OC)cc1)C(C(=O)OC)c1ccccc1 (stereo not drawn)
- GI50 (HT-29): > 100 µM (inactive)
- GI50 (MDA-N): > 100 µM (inactive)
- GI50 (OVCAR-3): > 100 µM (inactive)
- GI50 (HCT-116): > 100 µM (inactive)
- GI50 (SF-295): > 100 µM (inactive)
- GI50 (PC-3): > 100 µM (inactive)
- GI50 (NCI-H23): > 100 µM (inactive)
- GI50 (SF-539): > 100 µM (inactive)
- GI50 (SNB-19): > 100 µM (inactive)
- GI50 (NCI/ADR-RES): > 100 µM (inactive)
- GI50 (LOX IMVI): > 100 µM (inactive)
- GI50 (OVCAR-8): > 100 µM (inactive)
- GI50 (HOP-62): > 100 µM (inactive)
- GI50 (UACC-62): > 100 µM (inactive)
- GI50 (MCF7): > 100 µM (inactive)
- GI50 (K562): > 100 µM (inactive)
- GI50 (Hs-578T): > 100 µM (inactive)
- GI50 (SK-MEL-28): > 100 µM (inactive)
- GI50 (TK-10): > 100 µM (inactive)
- GI50 (SK-MEL-5): > 100 µM (inactive)
- GI50 (DU-145): > 100 µM (inactive)
- GI50 (SF-268): > 100 µM (inactive)
- GI50 (M14): > 100 µM (inactive)
- GI50 (KM12): > 100 µM (inactive)
- GI50 (CCRF-CEM): > 100 µM (inactive)
- GI50 (IGROV-1): > 100 µM (inactive)
- GI50 (SW-620): > 100 µM (inactive)
- GI50 (SR): > 100 µM (inactive)
- GI50 (T47D): > 100 µM (inactive)
- GI50 (ACHN): > 100 µM (inactive)
- GI50 (HCT-15): > 100 µM
- GI50 (MDA-MB-435): > 100 µM (inactive)
- GI50 (SK-MEL-2): > 100 µM (inactive)
- GI50 (SN12C): > 100 µM (inactive)
- GI50 (UACC-257): > 100 µM (inactive)
- GI50 (NCI-H522): > 100 µM (inactive)
- GI50 (UO-31): 96.2 µM (inactive)
- GI50 (COLO 205): > 100 µM (inactive)
- GI50 (786-0): > 100 µM (inactive)
- GI50 (SNB-75): 61 µM (inactive)
- GI50 (EKVX): > 100 µM (inactive)
- GI50 (NCI-H460): > 100 µM (inactive)
- GI50 (RPMI-8226): > 100 µM (inactive)
- GI50 (CAKI-1): > 100 µM (inactive)
- GI50 (OVCAR-5): > 100 µM (inactive)
- GI50 (A549): > 100 µM (inactive)
